Laboratory results as given in patent US12239714B2, “Phosphatidylserine-binding conjugates” (CANBAS CO., LTD., priority 2021, dated 2025).
“Also recorded” adds a separate entry of the source.

Legend:
[1] = test system: CT26 colon cancer cell line; assay: Syngeneic mice model, TSA005 (FIG. 1): growth of subcutaneous CT26 tumor; type: in vivo, BALB/c mice
Description: (§1) All animal studies were conducted according to protocols approved by institutional animal care committee of CanBas Co., Ltd. Six-week-old female BALB/c mice (The Jackson Laboratories Japan, Inc., Kanagawa, Japan) were inoculated subcutaneously in a flank with a suspension of CT26WT cells (5×10^5 cells). Ten days later mice were apportioned into 5 groups (6-8 mice/group) and treatments were initiated on day1.
The first cycle of the treatments was on day 1 to 5 and the second cycle was on day 10 to 14 as follows.
Cisplatin: Intravenous injection (i.v.) of Cisplatin 4 mg/kg and 5% Glucose on Day 1 and 10. Saline i.v. on Days 2, 3, 11 and 12.
Cisplatin+CBP501: Cisplatin 4 mg/kg and CBP501 6 mg/kg i.v. on Day 1 and 10. Saline i.v. on Days 2, 3, 11 and 12.
Cisplatin+CBP501+anti-CTLA-4 antibody: anti-CTLA4 antibody 200 μg intraperitoneal injection (i.p.) on Days 1 and 5. Cisplatin 4 mg/kg and CBP501 6 mg/kg i.v. on Day 2.
Cisplatin+CBP501+anti-CTLA-4 antibody+TSA005: anti-CTLA4 antibody 200 μg i.p. on Days 1 and 5. Cisplatin 4 mg/kg and CBP501 6 mg/kg i.v. on Day 2. TSA005 100 μg i.v. twice on Day 3 and once on Day 4.
Diphenhydramine 10 mg/kg was given i.p. 15 min before CBP501 or 5% Glucose treatment. The size of tumor was measured thrice weekly with a pair of calipers to calculate tumor volume by using the following formula: volume (mm^3)=[(width)^2 (mm)×length (mm)]/2.
Colon cancer cells from the CT26 cell line were subcutaneously inoculated in BALB/c mice 5×10^5 cells/mouse. The treatment was initiated on day 1, when the tumor sizes of 6-8 mice per test group attained an average size of about 200 mm^3. A cycle of the treatment schedule, dose and the route of treatment are detailed below. […]

[2] = test system: CT26 colon cancer cell line; assay: Syngeneic mice model, TSA005 compared to TSA009 (FIG. 2); type: in vivo, BALB/c mice; settings: 100 μg i.v. twice on Day 3 and once on Day 4; one cycle
Description: as §1, with “days later, the” for “days later”, “into 3” for “into 5”, “groups (6” for “groups (6-8”, “on Day 1.” for “on day1.”
Cisplatin+CBP501+anti-CTLA-4 antibody: anti-CTLA4 antibody 200 μg intraperitoneal injection (i.p.) on Days 3 and 5. Cisplatin 4 mg/kg and CBP501 6 mg/kg i.v. on Day 2. Saline i.v. twice on Day 3 and once on Day 4.
Cisplatin+CBP501+anti-CTLA-4 antibody+TSA005: anti-CTLA4 antibody 200 μg i.p. on Days 3 and 5. Cisplatin 4 mg/kg and CBP501 6 mg/kg i.v. on Day 2. TSA005 100 μg i.v. twice on Day 3 and once on Day 4.
Cisplatin+CBP501+anti-CTLA-4 antibody+TSA009: anti-CTLA4 antibody 200 μg i.p. on Days 3 and 5. Cisplatin 4 mg/kg and CBP501 6 mg/kg i.v. on Day 2. […] 100 μg i.v. twice on Day 3 and once on Day 4.
Diphenhydramine 10 mg/kg was given i.p. 15 min before CBP501 or 5% Glucose treatment. The size of tumor was measured thrice weekly with a pair of calipers to calculate tumor volume by using the following formula: volume (mm^3)=[(width)2 (mm)×length (mm)]/2.

[3] = test system: CT-26 mouse colon cancer cell line; assay: Tumor growth curves of subcutaneously implanted CT-26 in syngeneic BALB/c mice (FIGS. 4A-4D); type: in vivo; settings: for mouse body weight, compared with the triple drug combination: 100 μg/mouse iv added to Cisplatin+CBP501+anti-CTLA4, data not shown; for CT26 tumor growth, conjugate added to Cisplatin+CBP501+anti-CTLA4 treatment: 100 μg/mouse iv, day 2×2, day 3×1
Description: BALB/c mice were implanted subcutaneously with 5×10^5 cells mice colon cancer cell line, CT-26WT, at day −10 when the mice were at the age 6 weeks. Six mice made a group for each treatment when the average tumor size was 205 mm^3 (132-279 mm^3). Treatments were done as follows when the mice were at the age 8 weeks with body weight 19.5 to 24.5 g and tumor size were measured three times in a week.
Dosing schedule (“ip”: intraperitoneal injection; “iv”: intravenous injection): • Diphenhydramine (ip): 10 mg/kg (15 min before Cisplatin/CBP501 on day 1) • Cisplatin (iv): 4 mg/kg (day 1) • CBP501 (iv): 6 mg/kg (day 1) • Anti-CTLA4 antibody (ip) 200 μg/mouse (day2, 4) • TSA005,006 in saline (iv): 100 μg/mouse (day 2×2, day3×1) • TSA015 in HEPES (iv): 100 μg/mouse (day 2×2, day3×1) • Vehicle: saline (iv): 100 μL/mouse (day 2×2, day3×1) Distribution of the Cy5.5 Version of TSA006 (TSA013) in BALB/c Mouse. (FIG. 5)

Substance	tumor growth, TSA005 added to the CBP501+cisplatin combination ([1]; TSA005 100 μg i.v. Days 2, 3, 11 and 12, two cycles)	anti-tumor activity of TSA005 in combination with the two-drug or three-drug treatment regimen ([1]; TSA005 100 μg i.v., with CBP501+cisplatin or CBP501+cisplatin+anti-CTLA-4 antibody)	CT26 subcutaneous tumor growth, conjugate added to CBP501+cisplatin+anti-CTLA4 antibody [2]	mouse body weight, compared with the triple drug combination [3]	CT26 tumor growth, conjugate added to Cisplatin+CBP501+anti-CTLA4 treatment [3]	subcutaneous tumor growth, CBP501+cisplatin combination versus cisplatin alone ([1]; Cisplatin 4 mg/kg and CBP501 6 mg/kg i.v. Day 1 and 10, CT26 in BALB/c mice, acetate salt)
(TLVSSLr)4-K2-K-Cys(MI-CL264)-NH2 [TSA005]	further suppressed the tumor growth; also recorded: further reduced the growth of the tumor	enhanced anti-tumor activity; also recorded: reduced tumor growth further than the triple drug combination	suppressed CT26 subcutanous tumor growth more	did not change the mouse body weight further	further tumor growth suppression; also recorded: further suppressed the tumor growth	–
(TLVSSLr)8-K4-K2-K-Cys(MI-CL264)-NH2 [TSA009]	–	–	not and deleterious effect	–	–	–
H-(D)p-benzoylphenylalanyl-(D)seryl-(D)tryptophanyl-(D)seryl-(D)pentafluorophenylalanyl-(D)cyclohexylalanyl-(D)arginyl-(D)arginyl- (D)arginyl-(D)glutaminyl-(D)arginyl-(D)arginine acetate salt [CBP501, reference compound]	–	–	–	–	–	suppressed subcutaneous tumor growth much better than cisplatin alone
(GEGKGGr)4-K2-K-Cys(MI-CL264)-NH2 [TSA006]	–	–	–	did not change the mouse body weight further	further tumor growth suppression; also recorded: further suppressed the tumor growth	–
